# Test results from patent US20100029615A1, “BENZIMIDAZOLE DERIVATIVES” (priority 2006, published 2010).
# Counter-ions that a name gives are not always drawn.
# Target: T1, SMO (Mus musculus, UniProt P56726)
# T1 construct: endogenous in cells; host or cells: C3H10T1/2 (ATCC #CCL-226)
# Experiment: Smoothened (SMO)/Sonic Hedgehog (SHh) Transient Transcriptional Activation Assay (Gli-luciferase reporter in C3H10T1/2 cells)
# Type: cell-based, murine
# Conditions: 2 uM test compound, SHh 250 ng/ml, 20 hrs
# In short: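 C3H10T1/2 cells transiently transfected with a 10× murine Gli-responsive firefly luciferase reporter plus pEGFP, serum-starved 20 h in 0.5% calf serum, then treated with compounds (2 uM–2 nM final) and 250 ng/ml recombinant human SHh for 20 h at 37 °C. Read-out: Dual-Glo luminescence.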
# T1 sequence (P56726 33-793): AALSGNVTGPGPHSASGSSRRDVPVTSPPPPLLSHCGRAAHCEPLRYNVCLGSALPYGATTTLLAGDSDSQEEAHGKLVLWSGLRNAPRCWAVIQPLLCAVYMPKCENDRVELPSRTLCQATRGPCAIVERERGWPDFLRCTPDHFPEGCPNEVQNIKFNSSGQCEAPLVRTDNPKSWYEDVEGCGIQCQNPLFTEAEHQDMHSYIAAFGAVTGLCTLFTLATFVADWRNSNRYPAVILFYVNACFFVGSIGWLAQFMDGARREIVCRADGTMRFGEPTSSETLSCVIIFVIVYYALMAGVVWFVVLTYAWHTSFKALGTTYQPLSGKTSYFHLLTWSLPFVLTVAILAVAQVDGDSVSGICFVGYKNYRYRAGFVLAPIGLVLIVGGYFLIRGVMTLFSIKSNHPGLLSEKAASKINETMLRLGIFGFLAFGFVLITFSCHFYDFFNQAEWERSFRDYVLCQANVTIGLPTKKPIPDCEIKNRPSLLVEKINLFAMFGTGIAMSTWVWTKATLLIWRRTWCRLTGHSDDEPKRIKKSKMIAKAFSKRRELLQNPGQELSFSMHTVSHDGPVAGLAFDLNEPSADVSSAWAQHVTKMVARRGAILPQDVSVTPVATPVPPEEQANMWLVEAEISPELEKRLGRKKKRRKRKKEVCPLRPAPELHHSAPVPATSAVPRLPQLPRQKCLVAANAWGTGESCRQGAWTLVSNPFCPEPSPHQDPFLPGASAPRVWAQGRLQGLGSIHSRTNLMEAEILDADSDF
row,SMO % inhibition at 2 uM [%],Molecule
1,81,"N-(3-(6-Isopropyl-1-methyl-1H-benzo[d]imidazol-2-yl)cyclohexyl)-2,3-dihydrobenzo[b][1,4]dioxine-6-carboxamide and N-(3-(5-isopropyl-1-methyl-1H-benzo[d]imidazol-2-yl)cyclohexyl)-2,3-dihydrobenzo[b][1,4]dioxine-6-carboxamide [Example 32]"

# Same assay, conditions: C3H 10T1/2, 2 uM test compound, SHh 250 ng/ml, 20 hrs, read-out: SMO % inhibition at 2 uM
row,inhibition at 2 µM [%],Molecule
1,103,"O=C(N[C@@H]1CCC[C@H](c2nc3ccccc3[nH]2)C1)c1ccc(Cl)nc1 [N-((1R,3S)-3-(1H-Benzo[d]imidazol-2-yl)cyclohexyl)-6-chloronicotinamide]"

# Same assay, conditions: C3H 10T1/2, 2 μM test compound, SHh 250 ng/ml, 20 hrs, read-out: SMO CELL % INHIBITION @ 2 μM
row,Molecule,inhibition at 2 µM [%]
1,"COc1cc(OC)cc(C(=O)NC2CCCC(c3nc4ccc(C#N)cc4[nH]3)C2)c1 (centres unmarked) [Example 68, N-[3-(6-cyano-1H-benzimidazol-2-yl)cyclohexyl]-3,5-dimethoxybenz-amide]",89
2,"COCOc1ccc(C(=O)NC2CCCC(c3nc4ccccc4[nH]3)C2)cc1 (centres unmarked) [Example 96, N-[3-(1H-benzimidazol-2-yl)cyclohexyl]-4-(methoxymeth-oxy)benzamide triflouroacetate]",93
3,"O=C(NC1CCCC(c2nc3ccccc3[nH]2)C1)c1ccc(-n2cnnn2)cc1 (centres unmarked) [Example 163, N-[3-(1H-benzimidazol-2-yl)cyclohexyl]-4-(1H-tetrazol-1-yl)benzamide triflouroacetate]",95
4,"O=C(N[C@H]1CCC[C@@H](c2nc3ccc(Cl)cc3[nH]2)C1)c1ccc2c(c1)OCCO2 [Example 179, N-[(1S,3R)-3-(6-chloro-1H-benzimidazol-2-yl)cyclohexyl]-2,3-dihydro-1,4-benzodioxine-6-carboxamide HCl]",106
5,"COc1cc(OC)cc(C(=O)NC2CCCC(c3nc4cc(C(F)(F)F)ccc4[nH]3)C2)c1 (centres unmarked) [Example 74, 3,5-dimethoxy-N-{3-[6-(trifluoromethyl)-1H-benzimidazol-2-yl)cyclohexyl}-benzamide HCl]",105
6,"O=C(NC1CCCC(c2nc3ccccc3[nH]2)C1)c1cc(-c2ccncc2)n[nH]1 (centres unmarked) [Example 135, N-[3-(1H-benzimidazol-2-yl)cyclohexyl]-3-pyridin-4-yl-1H-pyrazole-5-carboxamide triflouroacetate]",100
7,"Cn1c(C2CCCC(NC(=O)c3ccc4c(c3)OCCO4)C2)nc2cc(CN)ccc21 (centres unmarked) [Example 73, N-{3-[5-(aminomethyl)-1-methyl-1H-benzimidazol-2-yl]cyclohexyl}-2,3-dihydro-1,4-benzodioxine-6-carboxamide HCl]",104
8,"CC(C)(C)C(=O)NC1CCCC(c2nc3ccccc3[nH]2)C1 (centres unmarked) [Example 55, N-[3-(1H-benzimidazol-2-yl)cyclohexyl]-2,2-dimethylpropan-amide HCl]",57
9,"Cn1c([C@H]2CCC[C@@H](NC(=O)c3ccc4c(c3)OCCO4)C2)nc2ccccc21 [Example 66, N-[(1R,3S)-3-(1-methyl-1H-benzimidazol-2-yl)cyclohexyl]-2,3-dihydro-1,4-benzodioxine-6-carboxamide HCl]",107
10,"COc1ccc(C2(C(=O)NC3CCCC(c4nc5ccccc5[nH]4)C3)CC2)cc1 (centres unmarked) [Example 132, N-[3-(1H-benzimidazol-2-yl)cyclohexyl]-1-(4-methoxyphenyl) cyclopropane-carboxamide triflouroacetate]",78
11,"COc1cc(OC)cc(C(=O)NC2CCCC(c3nc4ccc(OC)cc4[nH]3)C2)c1 (centres unmarked) [Example 69, 3,5-dimethoxy-N-[3-(6-methoxy-1H-benzimidazol-2-yl)cyclohexyl] benzamide]",105
12,"O=C(N[C@@H]1CCC[C@H](c2nc3ccccc3n2CCO)C1)c1ccc2c(c1)OCCO2 (stereo in doubt) [Example 71, N-{3-[1-(2-hydroxyethyl)-1H-benzimidazol-2-yl]cyclohexyl}-2,3-dihydro-1,4-benzodioxine-6-carboxamide]",98
13,"O=C1CCc2cc(C(=O)NC3CCCC(c4nc5ccccc5[nH]4)C3)ccc2N1 (centres unmarked) [Example 137, N-[3-(1H-benzimidazol-2-yl)cyclohexyl]-2-oxo-1,2,3,4-tetrahydroquino-line-6-carboxamide triflouroacetate]",108
14,"O=C(NC1CCCC(c2nc3ccccc3[nH]2)C1)c1cnn(Cc2ccccc2)c1 (centres unmarked) [Example 91, N-[3-(1H-benzimidazol-2-yl)cyclohexyl]-1-benzyl-1H-pyrazole-4-carboxamide triflouroacetate]",99
15,"O=C(Cn1nc2ccccc2n1)NC1CCCC(c2nc3ccccc3[nH]2)C1 (centres unmarked) [Example 92, N-[3-(1H-benzimidazol-2-yl)cyclohexyl]-2-(2H-1,2,3-benzotriazol-2-yl)acetamide triflouroacetate]",90

# The next lines start with the values.
row,inhibition at 2 µM [%],Molecule
1,73,"O=C(N[C@@H]1CCC[C@H](c2nc3ccccc3[nH]2)C1)c1ccc2oc(=O)[nH]c2c1 [Example 213, N-[(1R,3S)-3-(1H-benzimidazol-2-yl)cyclohexyl]-2-oxo-2,3-dihydro-1,3-benzoxazole-5-carboxamide triflouroacetate]"
2,48,"Cc1noc(C)c1NC(=O)N[C@@H]1CCC[C@H](c2nc3ccccc3[nH]2)C1 [Example 233, 1-((1R,3S)-3-(1H-benzo[d]imidaz-ol-2-yl)cyclohexyl)-3-(3,5-dimethylisoxaz-ol-4-yl)urea]"
3,106,"O=C(N[C@@H]1CCC[C@H](c2nc3cc(Cl)ccc3[nH]2)C1)c1ccc2c(c1)CN(CC1CC1)CC2 [Example 296, N-[(1R,3S)-3-(5-chloro-1H-benzimidazol-2-yl)cyclohexyl]-2-(cyclopropyl-methyl)-1,2,3,4-tetrahydroisoquino-line-7-carboxamide (+)-tartrate]"
4,114,"O=C1Cc2cc(C(=O)N[C@@H]3CCC[C@H](c4nc5cc(C(F)(F)F)ccc5[nH]4)C3)ccc2N1 [Example 286, 2-oxo-N-{(1R,3S)-3-[5-(trifluoromethyl)-1H-benzimidazol-2-yl]cyclohexyl} indoline-5-carboxamide HCl]"
5,64,"O=C(N[C@@H]1CCC[C@H](c2nc3ccccc3[nH]2)C1)c1cccc2ccccc12 [Example 188, N-[(1R,3S)-3-(1H-benzimidazol-2-yl)cyclohexyl]-1-naphthamide triflouroacetate]"
6,87,"O=C1Cc2cc(C(=O)N[C@@H]3CCC[C@H](c4nc5ccccc5[nH]4)C3)ccc2N1 [Example 219, N-[(1R,3S)-3-(1H-benzimidazol-2-yl)cyclohexyl]-2-oxoindoline-5-carboxamide triflouroacetate]"
7,32,"O=C(N[C@@H]1CCC[C@H](c2nc3ccccc3[nH]2)C1)c1cc2ccc(F)cc2[nH]1 [Example 209, N-[(1R,3S)-3-(1H-benzimidazol-2-yl)cyclohexyl]-6-fluoro-1H-indole-2-carboxamide triflouroacetate]"
8,95,"Cc1ccc(C(=O)N[C@@H]2CCC[C@H](c3nc4ccccc4[nH]3)C2)c2ccccc12 [Example 183, N-[(1R,3S)-3-(1H-benzimidazol-2-yl)cyclohexyl]-4-methyl-1-naphthamide triflouroacetate]"
9,85.2,"Cc1cccc(=O)n1CC(=O)N[C@@H]1CCC[C@H](c2nc3cc(C(F)(F)F)ccc3[nH]2)C1 [Example 282, 2-(6-methyl-2-oxopyridin-1(2H)-yl)-N-{(1R,3S)-3-[5-(trifluoromethyl)-1H-benzimidazol-2-yl]cyclohexyl} acetamide HCl]"
